# Measured values as given in the supplement of paper PMC10307832.
# Tests used:
# Assay in all cases: relative viability (nuclei count vs DMSO), 5 days (fraction); higher = more cells survive
# Gemcitabine + Navitoclax = compound: Nc1ccn([C@@H]2O[C@H](CO)[C@@H](O)C2(F)F)c(=O)n1 [Gemcitabine] + CC1(C)CCC(c2ccc(Cl)cc2)=C(CN2CCN(c3ccc(C(=O)NS(=O)(=O)c4ccc(N[C@H](CCN5CCOCC5)CSc5ccccc5)c(S(=O)(=O)C(F)(F)F)c4)cc3)CC2)C1 [Navitoclax] (partner 0.5 µM)
# How it was run: (§1)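 Each reported value is a median over duplicate plates. It expresses relative viability: treated-well nuclei count divided by vehicle-well nuclei count. Lung cancer cell lines in 1536-well plates were dosed by pin tool a day after seeding, alone with one drug or with a fixed anchor-drug dose plus five library-drug doses (not always all listed) in √10 steps, and nuclei were counted after 5 days.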
# Gemcitabine + Linsitinib = compound: Nc1ccn([C@@H]2O[C@H](CO)[C@@H](O)C2(F)F)c(=O)n1 [Gemcitabine] + C[C@]1(O)C[C@@H](c2nc(-c3ccc4ccc(-c5ccccc5)nc4c3)c3c(N)nccn32)C1 [Linsitinib] (partner 1 µM)
# How it was run: as §1
# Gemcitabine + Foretinib = compound: Nc1ccn([C@@H]2O[C@H](CO)[C@@H](O)C2(F)F)c(=O)n1 [Gemcitabine] + COc1cc2c(Oc3ccc(NC(=O)C4(C(=O)Nc5ccc(F)cc5)CC4)cc3F)ccnc2cc1OCCCN1CCOCC1 [Foretinib] (partner 0.25 µM)
# How it was run: as §1
# Gemcitabine + Luminespib = compound: Nc1ccn([C@@H]2O[C@H](CO)[C@@H](O)C2(F)F)c(=O)n1 [Gemcitabine] + CCNC(=O)c1noc(-c2cc(C(C)C)c(O)cc2O)c1-c1ccc(CN2CCOCC2)cc1 [Luminespib] (partner 0.01 µM)
# How it was run: as §1
Cell Line,relative viability (Gemcitabine + Navitoclax; first compound 0.001 µM),relative viability (Gemcitabine + Navitoclax; first compound 0.003162 µM),relative viability (Gemcitabine + Navitoclax; first compound 0.01 µM),relative viability (Gemcitabine + Navitoclax; first compound 0.03162 µM),relative viability (Gemcitabine + Navitoclax; first compound 0.1 µM),relative viability (Gemcitabine + Linsitinib; first compound 0.001 µM),relative viability (Gemcitabine + Linsitinib; first compound 0.003162 µM),relative viability (Gemcitabine + Linsitinib; first compound 0.01 µM),relative viability (Gemcitabine + Linsitinib; first compound 0.03162 µM),relative viability (Gemcitabine + Linsitinib; first compound 0.1 µM),relative viability (Gemcitabine + Foretinib; first compound 0.001 µM),relative viability (Gemcitabine + Foretinib; first compound 0.003162 µM),relative viability (Gemcitabine + Foretinib; first compound 0.01 µM),relative viability (Gemcitabine + Foretinib; first compound 0.03162 µM),relative viability (Gemcitabine + Foretinib; first compound 0.1 µM),relative viability (Gemcitabine + Luminespib; first compound 0.001 µM),relative viability (Gemcitabine + Luminespib; first compound 0.003162 µM),relative viability (Gemcitabine + Luminespib; first compound 0.01 µM),relative viability (Gemcitabine + Luminespib; first compound 0.03162 µM),relative viability (Gemcitabine + Luminespib; first compound 0.1 µM)
201T,1.17,1.24,1.24,1.19,0.494,1.07,1.06,1.06,0.663,0.339,1.06,0.994,0.914,0.217,0.177,1.04,1.03,1.04,0.681,0.278
A549,1.21,1.1,0.0375,0.0126,0.0108,0.705,0.356,0.0342,0.0143,0.0157,0.998,0.901,0.616,0.0177,0.0104,,,,,
A-427,0.918,0.907,0.719,0.189,0.124,1.06,1.03,0.895,0.209,0.138,1.09,0.948,0.598,0.181,0.155,1,0.899,0.443,0.195,0.171
ABC-1,,,,,,0.92,1.01,0.689,0.286,0.243,0.886,,1.06,0.312,0.17,0.618,1.05,0.371,0.25,0.151
BEN,0.0578,0.0698,0.0605,0.0528,0.0444,1.07,0.653,0.255,0.11,0.0904,0.77,0.575,0.303,0.112,0.119,0.528,0.317,0.14,0.12,0.107
CAL-12T,1.14,1.1,0.845,0.164,0.141,0.777,0.859,0.567,0.256,0.169,1.11,1.03,0.982,0.707,0.182,0.87,0.238,0.245,0.236,0.173
COR-L23,0.951,0.96,0.381,0.0768,0.0895,1.19,0.954,0.467,0.0831,0.0803,0.972,0.898,0.556,0.123,0.0959,0.742,0.704,0.311,0.143,0.0841
COR-L 105,0.792,0.581,0.544,0.291,0.263,0.88,0.734,0.6,0.278,0.269,1.39,0.884,1.01,0.371,0.27,0.886,0.793,0.571,0.275,0.188
Calu-6,0.789,0.317,0.111,0.0922,0.0731,0.948,0.618,0.234,0.129,0.0919,0.847,0.566,0.403,0.0993,0.0677,,,,,
ChaGo-K-1,0.939,0.443,0.361,0.26,0.266,,,,,,0.901,0.815,0.428,0.213,0.191,0.603,0.474,0.259,0.183,0.186
EKVX,0.93,0.89,0.0897,0.133,0.0934,1.07,0.727,0.541,0.188,0.118,0.788,0.457,0.173,0.246,0.113,1.06,0.727,0.456,0.182,0.115
EMC-BAC-2,1.21,1.17,1.11,0.147,0.136,0.797,0.822,0.751,0.191,0.154,1.03,1.03,0.885,0.201,0.201,1.29,1.17,1.04,0.222,0.194
EPLC-272H,1.14,0.953,0.395,0.0915,0.07,1.21,1.18,0.883,0.673,0.0949,0.636,0.815,0.416,0.075,0.0466,0.145,0.323,0.337,0.16,0.135
H3255,0.558,0.404,0.135,0.121,0.106,0.954,0.644,0.762,0.233,0.145,1.04,0.666,0.782,0.273,0.229,0.899,0.752,0.707,0.271,0.248
HARA,1.15,1.17,1.1,0.289,0.0674,1.05,1.01,0.832,0.293,0.0949,0.965,0.894,0.853,0.119,0.0735,0.683,0.847,0.719,0.0504,0.0409
HCC-15,0.718,0.702,0.69,0.441,0.0936,0.981,0.893,0.848,0.217,0.0888,1.12,1.07,1.01,0.152,0.0815,0.305,0.234,0.32,0.15,0.0821
HCC-44,0.97,0.993,0.893,0.173,0.154,0.628,0.672,0.589,0.166,0.143,,,,,,1.07,0.979,0.813,0.261,0.226
